# Assay results published in patent US20230112418A1, “COMPOUND AND RADIOACTIVE LABELING COMPOUND” (NIHON MEDI-PHYSICS CO., LTD., priority 2020, published 2023).
# Where two headings read alike, the source gives them in different places.
# Assays:
# [1] = system: LNCaP tumor transplanted mice; test: Suppression of tumor growth by 90Y-labeled compound; type: in vivo; conditions: 3.7 MBq i.v., FIG. 8
# Protocol: A saline solution (100 μL) of [^90Y]Y-PSMA-DA1 (3.7 MBq) or [^90Y]Y-PSMA-DB (3.7 MBq) obtained by the above-described method was injected into each of the LNCaP tumor transplanted mice via the tail vein thereof (n=7). As a control group, 100 μL of saline was injected into each of the LNCaP tumor transplanted mice via the tail vein thereof (n=7).
# After the injection of the ^90Y-labeled compound, a tumor volume and a body weight were measured three times per week. The tumor volume was calculated based on a calculation formula “(tumor volume)=[(long side)×(short side)^2/2]”.
# [2] = Distribution coefficient (1-octanol/PBS); type: physicochemical; conditions: log10, 1-octanol/PBS pH 7.4, n=5
# Protocol: The radioactive labeled compound (740 kBq) of any one of Examples and Comparative Examples was added to a mixed liquid of PBS (3 mL, pH 7.4 (20° C.)) and 1-octanol (3 mL), and the mixture was vortexed for two minutes and then centrifuged at 4000×g for five minutes. Thereafter, 1 mL of the 1-octanol layer and 500 μL of the PBS layer were collected, and the amount of radioactivity of each of the layers was measured with a gamma counter (n=5).
# As a calculation formula of a distribution coefficient, “log10 [(amount of radioactivity of 1-octanol layer)/(amount of radioactivity of PBS layer×2)]” was used. Results are illustrated in Table 1 below as mean±standard deviation (mean±SD).
# [^111In]In-PtDA (111 kBq) was added to a mixed liquid of PBS (pH 7.4, 3 mL) and 1-octanol (3 mL). The mixture was dispersed by vortexing for two minutes, and then centrifuged at 4000×g for five minutes. 1 mL of the 1-octanol layer and 1 mL of the PBS layer were collected, and the radioactivity of each of the layers was measured with a gamma counter (n=3).
# As a calculation formula, “(distribution coefficient)=[…]) [(radioactivity of 1-octanol layer [kBq])/(radioactivity of PBS layer [kBq])]” was used.
# CA-IX = target: T1, CA-IX (Homo sapiens, UniProt Q16790); test: Cell binding inhibition assay (acetazolamide as inhibitor, HT-29 cells); conditions: read-out: IC50 (nM, mean ± SD)
# T1 construct: HT-29 cells (CA-IX highly expressing cells, purchased from Sumitomo Dainippon Pharma Co., Ltd.); host or cells: HT-29 cells
# Protocol: In this evaluation, binding properties of [^111In]IS-DO2A-ALB1 to DO2A-ALB4 and [^111In]DO3A-IS1 with respect to CA-IX were evaluated.
# Specifically, HT-29 cells (CA-IX highly expressing cells, purchased from Sumitomo Dainippon Pharma Co., Ltd.) were seeded together with a medium at 4.0×10^5 cells/well in a 12 well plate, and cultured at 37° C. for 24 hours in an atmosphere of 5% carbon dioxide.
# Subsequently, the medium was removed, and a medium containing any one of the radioactive labeled compounds of Examples 1 to 4 and Comparative Example 1 (37 kBq/mL) was added to each well in an amount of 1 mL such that the acetazolamide concentration was 50000 to 0.00512 nM as an inhibitor, and the sample was cultured at 37° C. for two hours in an atmosphere of 5% carbon dioxide. In addition, a sample containing the radioactive labeled compound and not containing acetazolamide was also cultured under similar conditions. The experiment was performed with each concentration group at n=6.
# Subsequently, the medium was removed, the residue was washed with PBS (1 mL), and cells were lysed with a 1 N sodium hydroxide aqueous solution (200 μL×2) to obtain a cell lysate. Then, the amount of radioactivity in the cell lysate and that in the medium containing the radioactive labeled compound were each measured with a gamma counter (type name: Wallac 2470 Wizard manufactured by PerkinElmer, Massachusetts, U.S.A.). Separately from this, the total protein mass (mg protein) in the cell lysate was quantified by a BCA method. […] Results are illustrated in Table 2 below as mean±standard deviation (mean±SD).
# That is, the […] the calculated value of IC50, the higher affinity between the radioactive labeled compound and CA-IX.
# HT-29 tumor-bearing mice = test: In vivo radioactivity distribution assay in HT-29 tumor-bearing mice
# Text: Under 2% isoflurane anesthesia, a suspension of HT-29 cells (5×10^6 cells/mouse) expressing CA-IX was subcutaneously injected into the left shoulder of each of 5-week-old male BALB/c nude mice (purchased from SHIMIZU Laboratory Supplies CO., LTD.). The composition of the suspension was a mixture of HT-29 cells/DMEM medium (manufactured by Thermo Fisher Scientific Inc.) and a matrix product (Geltrex (registered trademark) (manufactured by Thermo Fisher) at a volume ratio of 1:1.
# Thereafter, the subcutaneously injected mice were raised for 14 days in a raising room that switches day and night every 12 hours with normal food and tap water to obtain HT-29 tumor-bearing mice.
# Then, a saline solution (259 kBq, 100 μL, containing 3 mg of ascorbic acid) of each of the radioactive labeled compounds of Examples 1 to 3 or a saline solution (259 kBq, 100 μL, containing 1 mg of ascorbic acid) of the radioactive labeled compound of Comparative Example 1 was injected into each of the mice via the tail vein thereof. The mice (n=5 in each group) were euthanized 1, 4, 8, 24, 48, 96, or 192 hours after the injection, blood, organs, and tumor sites were collected, and the masses thereof were measured. The amount of radioactivity was measured with a gamma counter.
# (§1) The degree of accumulation of the radioactive labeled compound is indicated as a value (% injected dose/g) obtained by dividing the percentage (% ID) of the amount of radioactivity with respect to the amount of injected radioactivity (injected dose) by the mass of blood or the mass of an organ (g). […] Results are illustrated in FIG. 1.
# [3] = system: MDA-MB-231 tumor-bearing mice; test: In vivo radioactivity distribution assay in MDA-MB-231 tumor-bearing mice; conditions: 24 hours after injection
# Protocol: In a similar manner to Evaluation 3, a suspension of MDA-MB-231 cells (1×10^7 cells/mouse) having low expression of CA-IX was subcutaneously injected into the left shoulder of each of 5-week-old male BALB/c nude mice to obtain MDA-MB-231 tumor-bearing mice.
# Then, a saline solution (40 kBq, 100 μL, containing 3 mg of ascorbic acid) of the radioactive labeled compound of Example 1 was injected into each of the mice via the tail vein thereof. Mice (n=5 in each group) were euthanized 24 hours after the injection, blood, organs, and tumor sites were collected, and the masses thereof were measured. The amount of radioactivity was measured with a gamma counter.
# as §1, with “ID/g)” for “injected dose/g)”, “Table 3 as mean±standard deviation (n=5).” for “FIG. 1.”
# [4] = system: LNCaP tumor transplanted mice; test: Suppression of tumor growth by 225Ac-labeled compound; type: in vivo; conditions: 20 kBq i.v., FIG. 9
# Protocol: [^225Ac]Ac-PSMA-DA1 (20 kBq) or [^225Ac]Ac-PSMA-DB (20 kBq) obtained by the above-described method was dissolved in a 5% ethanol-containing acetate buffer (158 mM, pH 6.5, 100 μL), and the solution was injected into each of the LNCaP tumor transplanted mice via the tail vein thereof (n=6 or 5). As a control group, 100 μL of 5% ethanol-containing acetate buffer (158 mM, pH 6.5) was injected into each of the LNCaP tumor transplanted mice via the tail vein thereof (n=4).
# After the injection of the ^225Ac-labeled compound, a tumor volume and a body weight were measured three times per week. The tumor volumes on the start day of injection of the ^225Ac-labeled compound were 75.3±26.0, 80.6±20.8, and 91.1±15.9 mm^3 in the [^225Ac]Ac-PSMA-DA1 injection group, the [^225Ac]Ac-PSMA-DB injection group, and the 5% ethanol-containing acetate buffer injection group, respectively.
# [5] = IC50 of inhibitor acetazolamide against binding of the radioactive labeled compound to HT-29 cells, 2 h, larger value = higher affinity of labeled compound for CA-IX
compound,measurement,setting,value
O=C([O-])CN1CCN(C(CCC(=O)NCCCC[C@H](NC(=O)N[C@@H](CCC(=O)O)C(=O)O)C(=O)O)C(=O)[O-])CCN(CC(=O)[O-])CCN(C(CCC(=O)Nc2ccccc2)C(=O)[O-])CC1.[90Y+3] (stereo partly shown) [[^90Y]Y-PSMA-DB],Time after injection at which a significant difference in tumor volume vs saline group was observed,[1],≥ 33 days
"NS(=O)(=O)c1nn2cc(-c3ccc(NC(=O)CN4CCN(CC(=O)O)CCN(CC(=O)O)CCN(CC(=O)O)CC4)cc3)nc2s1 [[^111In]DO3A-IS1, metal not drawn]",Distribution coefficient (mean ± SD),[2],−3.72 ± 0.05
same,IC50,CA-IX,127 ± 19.6 nM
NS(=O)(=O)c1nn2cc(-c3ccc(NC(=O)CN4CCN(CC(=O)[O-])CCN(CC(=O)[O-])CCN(CC(=O)[O-])CC4)cc3)nc2s1.[111In+3] [[^111In]DO3A-IS1],Amount accumulated in the kidney (in words),HT-29 tumor-bearing mice; FIG. 1,very large as compared with the results of Examples
same,Amount accumulated in the tumor expressing CA-IX (in words),"HT-29 tumor-bearing mice; FIG. 1, HT-29 tumor",poor
NS(=O)(=O)c1nn2cc(-c3ccc(NC(=O)CN4CCN(CC(=O)O)CCN(CC(=O)N[C@@H](CCCCNC(=O)CCCc5ccc(I)cc5)C(=O)O)CCN(CC(=O)O)CC4)cc3)nc2s1.[111In+3] [[^111In]IS-DO2A-ALB1],Distribution coefficient (mean ± SD),[2],−1.70 ± 0.01
same,Radioactivity accumulated amount: Blood,[3],5.50 ± 1.17 % ID/g
same,Radioactivity accumulated amount: Brain,[3],0.34 ± 0.03 % ID/g
same,Radioactivity accumulated amount: Heart,[3],3.12 ± 0.25 % ID/g
same,Radioactivity accumulated amount: Intestinal,[3],4.65 ± 0.48 % ID/g
same,Radioactivity accumulated amount: Kidney,[3],11.42 ± 0.65 % ID/g
same,Radioactivity accumulated amount: Liver,[3],2.64 ± 0.47 % ID/g
same,Radioactivity accumulated amount: Lung,[3],7.28 ± 0.85 % ID/g
same,Radioactivity accumulated amount: Muscle,[3],1.21 ± 0.22 % ID/g
same,Radioactivity accumulated amount: Pancreas,[3],2.27 ± 0.30 % ID/g
same,Radioactivity accumulated amount: Spleen,[3],2.04 ± 0.45 % ID/g
same,Radioactivity accumulated amount: Stomach,[3],4.44 ± 0.48 % ID
same,Radioactivity accumulated amount: Tumor (MDA-MB-231),[3],5.05 ± 0.59 % ID/g
same,Tumor/blood radioactivity ratio,[3],0.94 ± 0.17
same,Tumor/kidney radioactivity ratio,[3],0.44 ± 0.05
same,Tumor/muscle radioactivity ratio,[3],4.22 ± 0.47
same,Accumulation in the HT-29 tumor,HT-29 tumor-bearing mice; value of Evaluation 3 quoted for comparison with Table 3,10.73 % ID/g
same,IC50,CA-IX; [5],571.4 ± 2.6 nM
"Cc1ccc(CCCC(=O)NCCCC[C@H](NC(=O)CN2CCN(CC(=O)O)CCN(CC(=O)Nc3ccc(-c4cn5nc(S(N)(=O)=O)sc5n4)cc3)CCN(CC(=O)O)CC2)C(=O)O)cc1.[111In+3] [[^111In]IS-DO2A-ALB2, [^111In] indium(III) (S)-2,2′-(4-(2-((1-carboxy-5-(4-(4-tolyl)butanamide)pentyl)amino)-2-oxoethyl)-10-(2-oxo-2-((4-(2-sulfamoylimidazo[2,1-b][1,3,4]thiadiazol-6-yl)phenyl)amino)ethyl)-1,4,7,10-tetraazacyclododecane-1,7-diyl) diacetic acid]",Distribution coefficient (mean ± SD),[2],−2.16 ± 0.04
same,IC50,CA-IX; [5],165 ± 60.6 nM
NS(=O)(=O)c1nn2cc(-c3ccc(NC(=O)CN4CCN(CC(=O)O)CCN(CC(=O)N[C@@H](CCCCNC(=O)CCCc5ccc(Br)cc5)C(=O)O)CCN(CC(=O)O)CC4)cc3)nc2s1.[111In+3] [[^111In]IS-DO2A-ALB3],Distribution coefficient (mean ± SD),[2],−1.90 ± 0.01
same,IC50,CA-IX; [5],288 ± 45.7 nM
"NS(=O)(=O)c1nn2cc(-c3ccc(NC(=O)CN4CCN(CC(=O)O)CCN(CC(=O)N[C@@H](CCCCNC(=O)CCCc5ccccc5)C(=O)O)CCN(CC(=O)O)CC4)cc3)nc2s1.[111In+3] [[^111In]IS-DO2A-ALB4, [^111In] indium(III) (S)-2,2′-(−(2-((1-carboxy-5-(4-phenylbutanamide)pentyl)amino)-2-oxoethyl)-10-(2-oxo-2-((4-(2-sulfamoylimidazo[2,1-b][1,3,4]thiadiazol-6-yl)phenyl)amino)ethyl)-1,4,7,10-tetraazacyclododecane-1,7-diyl) diacetic acid]",Distribution coefficient (mean ± SD),[2],−2.36 ± 0.01
same,IC50,CA-IX; [5],105 ± 8 nM
O=C([O-])CN1CCN(C(CCC(=O)NCCCC[C@H](NC(=O)N[C@@H](CCC(=O)O)C(=O)O)C(=O)O)C(=O)[O-])CCN(CC(=O)[O-])CCN(C(CCC(=O)N[C@@H](CCCCNC(=O)CCCc2ccc(I)cc2)C(=O)O)C(=O)[O-])CC1.[225Ac+3] (stereo partly shown) [[^225Ac]Ac-PSMA-DA1],Course of tumor growth (in words),[4],"the tumor hardly grew, and continuous growth suppression was observed up to six weeks after the injection"
same,Decrease in body weight (in words),[4],transient
same,Tumor growth compared with control group (in words),[4],tumor growth was significantly suppressed
O=C([O-])CN1CCN(C(CCC(=O)NCCCC[C@H](NC(=O)N[C@@H](CCC(=O)O)C(=O)O)C(=O)O)C(=O)[O-])CCN(CC(=O)[O-])CCN(C(CCC(=O)Nc2ccccc2)C(=O)[O-])CC1.[225Ac+3] (stereo partly shown) [[^225Ac]Ac-PSMA-DB],Decrease in body weight (in words),[4],"temporarily accelerated, but there was no sign of recovery thereafter"
same,Tumor growth compared with control group (in words),[4],tumor growth was significantly suppressed
